From patent US20230295212A1 (ROME Therapeutics, Inc., priority 2022, published 2023)

Target: T1, LINE1 reverse transcriptase (Homo sapiens, UniProt O00370)
T1 construct: expressed in transfected cells; host or cells: HeLa Tet-On 3G (Takara, cat no 631183)
Assay: Stable artificial-intron Cis LINE1 reporter assay (HeLa Tet-On 3G, Firefly luciferase)
Assay type: cell-based
Conditions: HeLa L1 artificial-intron reporter cells, doxycycline 500 ng/mL, 72 h, class symbols
Protocol: Exemplary compounds, were tested for the ability to inhibit LINE1 reverse transcriptase using a stable artificial-intron Cis LINE1 reporter assay. Assay procedures and results are described below.
A stable HeLa Tet-On 3G (Takara, cat no 631183) cell line expressing a bi-directional inducible LINE1 construct was generated as described in Xie, Y. et al. “Cell division promotes efficient retrotransposition in a stable L1 reporter cell line,” Mobile DNA (2013) 4:10. Single cell clones were screened for high Luciferase expression and the highest expression Firefly expressing clone was chosen for compound testing.
Test compounds were serially diluted in DMSO and spotted in 96-well plates. Subsequently, the HeLa Li artificial-intron reporter cells were plated into the compound-containing wells (8,000 cells/well), and the cells were induced for reporter expression with doxycycline (Sigma-Aldrich cat #D9891) at a final concentration of 500 ng/mL. Luminescence was measured 72 h after plating using the Dual-Glo Luciferase Assay System (Promega cat #E2940) following the manufacturer's instructions. The Firefly Luciferase activity was used to report LINE1 activity.

T1 sequence (O00370 whole entry, looked up): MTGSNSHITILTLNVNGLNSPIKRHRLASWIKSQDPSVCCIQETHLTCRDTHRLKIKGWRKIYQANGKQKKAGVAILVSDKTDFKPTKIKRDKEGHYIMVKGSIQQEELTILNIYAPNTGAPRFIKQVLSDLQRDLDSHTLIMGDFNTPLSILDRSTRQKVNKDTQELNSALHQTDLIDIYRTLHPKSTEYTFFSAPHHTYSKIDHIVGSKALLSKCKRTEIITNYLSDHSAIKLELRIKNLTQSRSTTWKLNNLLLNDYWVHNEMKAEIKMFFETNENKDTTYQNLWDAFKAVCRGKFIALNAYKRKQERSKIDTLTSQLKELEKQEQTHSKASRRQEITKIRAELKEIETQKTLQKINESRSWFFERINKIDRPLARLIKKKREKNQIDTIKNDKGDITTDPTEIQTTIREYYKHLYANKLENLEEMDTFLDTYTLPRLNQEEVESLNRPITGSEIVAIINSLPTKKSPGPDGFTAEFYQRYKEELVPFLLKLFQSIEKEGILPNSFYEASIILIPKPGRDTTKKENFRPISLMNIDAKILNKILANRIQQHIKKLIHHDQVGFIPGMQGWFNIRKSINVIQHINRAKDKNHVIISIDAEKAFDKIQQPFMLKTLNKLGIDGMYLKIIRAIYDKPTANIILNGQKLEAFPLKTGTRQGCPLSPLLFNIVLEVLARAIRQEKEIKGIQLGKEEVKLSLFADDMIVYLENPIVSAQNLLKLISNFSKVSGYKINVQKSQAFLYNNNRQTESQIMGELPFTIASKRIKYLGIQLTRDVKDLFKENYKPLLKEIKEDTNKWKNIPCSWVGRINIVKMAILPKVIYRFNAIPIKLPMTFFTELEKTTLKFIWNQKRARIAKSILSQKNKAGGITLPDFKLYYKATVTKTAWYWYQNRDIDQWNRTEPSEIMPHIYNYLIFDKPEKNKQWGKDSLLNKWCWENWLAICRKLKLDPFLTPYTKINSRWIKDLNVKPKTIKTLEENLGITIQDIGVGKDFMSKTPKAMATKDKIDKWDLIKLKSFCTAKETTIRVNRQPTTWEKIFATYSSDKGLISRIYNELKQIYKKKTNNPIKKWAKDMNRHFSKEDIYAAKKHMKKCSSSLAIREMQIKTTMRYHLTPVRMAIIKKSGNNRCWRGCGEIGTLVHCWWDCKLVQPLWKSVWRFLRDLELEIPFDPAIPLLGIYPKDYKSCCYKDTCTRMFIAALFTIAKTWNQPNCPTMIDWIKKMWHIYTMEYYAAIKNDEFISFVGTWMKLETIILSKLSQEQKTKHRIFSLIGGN

SMILES | IC50 [µM]
C#C[C@]1(CO)O[C@@H](n2cc(C)c(=O)[nH]c2=O)[C@@H](F)[C@@H]1O [Compound 39, 1-((2R,3S,4R,5R)-5-ethynyl-3-fluoro-4-hydroxy-5-(hydroxymethyl)tetrahydrofuran-2-yl)-5-methylpyrimidine-2,4(1H,3H)-dione] | 0.25 to 1
C#C[C@]1(CO)O[C@@H](n2ccc(N)nc2=O)C[C@@H]1O [Compound 41, 4-amino-1-((2R,4S,5R)-5-ethynyl-4-hydroxy-5-(hydroxymethyl)tetrahydrofuran-2-yl)pyrimidin-2(1H)-one] | ≤ 0.05
C#C[C@]1(CO)O[C@@H](n2cnc3c(N)nc(F)nc32)[C@@H](F)[C@@H]1O [Compound 42, (2R,3R,4S,5R)-5-(6-amino-2-fluoro-9H-purin-9-yl)-2-ethynyl-4-fluoro-2-(hydroxymethyl) tetrahydrofuran-3-ol] | ≤ 0.05
C=C[C@]1(CO)O[C@@H](n2ccc(N)nc2=O)C[C@@H]1O [Compound 43, 4-amino-1-((2R,4S,5R)-4-hydroxy-5-(hydroxymethyl)-5-vinyltetrahydrofuran-2-yl)pyrimidin-2(1H)-one] | ≤ 0.05
CC[C@]1(CO)O[C@@H](n2ccc(N)nc2=O)C[C@@H]1O [Compound 44, 4-amino-1-((2R,4S,5R)-5-ethyl-4-hydroxy-5-(hydroxymethyl)tetrahydrofuran-2-yl)pyrimidin-2(1H)-one] | ≤ 0.05
Nc1ccn([C@H]2C[C@H](O)[C@](CO)(CF)O2)c(=O)n1 [Compound 45, 4-amino-1-((2R,4S,5R)-5-(fluoromethyl)-4-hydroxy-5-(hydroxymethyl)tetrahydrofuran-2-yl)pyrimidin-2(1H)-one] | 0.05 to 0.1
Nc1nc2c(ncn2[C@H]2C[C@H](O)[C@](CO)(CF)O2)c(=O)[nH]1 [Compound 46, 2-amino-9-((2R,4S,5R)-5-(fluoromethyl)-4-hydroxy-5-(hydroxymethyl)tetrahydrofuran-2-yl)-1,9-dihydro-6H-purin-6-one] | 0.05 to 0.1
C=C[C@]1(CO)O[C@@H](n2ccc(N)nc2=O)[C@@H](F)[C@@H]1O [Compound 47, 4-amino-1-((2R,3S,4R,5R)-3-fluoro-4-hydroxy-5-(hydroxymethyl)-5-vinyltetrahydrofuran-2-yl)pyrimidin-2(1H)-one] | ≤ 0.05
CO[C@]1(CO)O[C@@H](n2ccc(N)nc2=O)C[C@@H]1O [Compound 48, 4-amino-1-((2R,4S,5R)-4-hydroxy-5-(hydroxymethyl)-5-methoxytetrahydrofuran-2-yl)pyrimidin-2(1H)-one] | 0.05 to 0.1
[N-]=[N+]=N[C@]1(CO)O[C@@H](n2ccc(N)nc2=O)C[C@@H]1O [Compound 49, 4-amino-1-((2R,4S,5R)-5-azido-4-hydroxy-5-(hydroxymethyl)tetrahydrofuran-2-yl)pyrimidin-2(1H)-one] | 0.05 to 0.1
[N-]=[N+]=N[C@]1(CO)O[C@@H](n2ccc(N)nc2=O)[C@@H](F)[C@@H]1O [Compound 50, 4-amino-1-((2R,3S,4R,5R)-5-azido-3-fluoro-4-hydroxy-5-(hydroxymethyl)tetrahydrofuran-2-yl)pyrimidin-2(1H)-one] | ≤ 0.05
CC[C@]1(CO)O[C@@H](n2ccc(N)nc2=O)[C@@H](F)[C@@H]1O [Compound 51, 4-amino-1-((2R,3S,4R,5R)-5-ethyl-3-fluoro-4-hydroxy-5-(hydroxymethyl)tetrahydrofuran-2-yl)pyrimidin-2(1H)-one] | ≤ 0.05
CC[C@]1(COC(=O)C(C)C)O[C@@H](n2ccc(N)nc2=O)C[C@@H]1OC(=O)C(C)C [Compound 52, [(2R,3S,5R)-5-(4-amino-2-oxopyrimidin-1-yl)-2-ethyl-3-[(2-methylpropanoyl)oxy]oxolan-2-yl] methyl 2-methylpropanoate] | 0.1 to 0.25
C=C[C@]1(COC(=O)C(C)C)O[C@@H](n2ccc(N)nc2=O)C[C@@H]1OC(=O)C(C)C [Compound 53, [(2R,3S,5R)-5-(4-amino-2-oxopyrimidin-1-yl)-2-ethenyl-3-[(2-methylpropanoyl)oxy]oxolan-2-yl] methyl 2-methylpropanoate] | 0.25 to 1
CC(C)[C@]1(CO)O[C@@H](n2ccc(N)nc2=O)C[C@@H]1O [Compound 55, 4-amino-1-[(2R,4S,5R)-4-hydroxy-5-(hydroxymethyl)-5-isopropyloxolan-2-yl] pyrimidin-2-one] | > 1
C=CCC1(CO)O[C@@H](n2ccc(N)nc2=O)C[C@@H]1O (stereo partly drawn) [Compound 56, 1-((2R,4S)-5-allyl-4-hydroxy-5-(hydroxymethyl)tetrahydrofuran-2-yl)-4-aminopyrimidin-2(1H)-one] | 0.1 to 0.25
CCCC1(CO)O[C@@H](n2ccc(N)nc2=O)C[C@@H]1O (stereo partly drawn) [Compound 57, 4-amino-1-((2R,4S,5R)-4-hydroxy-5-(hydroxymethyl)-5-propyltetrahydrofuran-2-yl)pyrimidin-2(1H)-one] | > 1
CC(C)C(=O)OC[C@@]1(CCl)O[C@@H](n2cc(F)c(N)nc2=O)C[C@@H]1OC(=O)C(C)C [Compound 58] | 0.05 to 0.1
Nc1ccn([C@H]2C[C@@H](O)[C@](CO)(CCl)O2)c(=O)n1 [Compound 59, 4-amino-1-[(2R,4R,5R)-5-(chloromethyl)-4-hydroxy-5-(hydroxymethyl)oxolan-2-yl] pyrimidin-2-one] | > 1
CCC[C@]1(CO)O[C@@H](n2ccc(N)nc2=O)C[C@@H]1O [Compound 60, 4-amino-1-((2R,4S,5R)-4-hydroxy-5-(hydroxymethyl)-5-propyltetrahydrofuran-2-yl)pyrimidin-2(1H)-one] | > 1
[N-]=[N+]=N[C@]1(CO)O[C@@H](n2cc(F)c(N)nc2=O)C[C@@H]1O [Compound 61, 4-amino-1-((2R,4S,5R)-5-azido-4-hydroxy-5-(hydroxymethyl)tetrahydrofuran-2-yl)-5-fluoropyrimidin-2(1H)-one] | ≤ 0.05
Nc1ccn([C@H]2C[C@H](O)[C@](CO)(CC(F)(F)F)O2)c(=O)n1 [Compound 62, 4-amino-1-[(2R,4S,5R)-4-hydroxy-5-(hydroxymethyl)-5-(2,2,2-trifluoroethyl)oxolan-2-yl] pyrimidin-2-one] | 0.25 to 1
C=C[C@]1(CO)O[C@@H](n2cnc3c(=O)[nH]c(N)nc32)[C@@H](F)[C@@H]1O [Compound 63, 2-amino-9-[(2R,3S,4R,5R)-5-ethenyl-3-fluoro-4-hydroxy-5-(hydroxymethyl)oxolan-2-yl]-1H-purin-6-one] | 0.25 to 1
CC[C@]1(CO)O[C@@H](n2cnc3c(N)nc(F)nc32)C[C@@H]1O [Compound 64, (2R,3S,5R)-5-(6-amino-2-fluoro-9H-purin-9-yl)-2-ethyl-2-(hydroxymethyl)tetrahydrofuran-3-ol] | 0.05 to 0.1
Nc1nc(=O)n([C@H]2C[C@H](O)[C@](CO)(C(F)F)O2)cc1F [Compound 65, 4-amino-1-[(2R,4S,5R)-5-(difluoromethyl)-4-hydroxy-5-(hydroxymethyl)oxolan-2-yl]-5-fluoropyrimidin-2-one] | ≤ 0.05
Nc1nc(=O)n([C@H]2C[C@H](O)[C@](CO)(C(F)(F)F)O2)cc1F [Compound 66, 4-amino-5-fluoro-1-((2R,4S,5R)-4-hydroxy-5-(hydroxymethyl)-5-(trifluoromethyl)tetrahydrofuran-2-yl)pyrimidin-2(1H)-one] | 0.25 to 1

Same assay, conditions: HeLa L1 artificial-intron reporter cells, doxycycline 500 ng/mL, 72 h, numeric bounds

SMILES | IC50 [µM]
CO[C@H]1C[C@H](n2ccc(N)nc2=O)O[C@@]1(CO)CCl [Compound 54, 4-amino-1-[(2R,4S,5R)-5-(chloromethyl)-5-(hydroxymethyl)-4-methoxyoxolan-2-yl]-3,4-dihydropyrimidin-2-one] | > 30
